Source: patent publication US20210002641A1, “COMPOSITIONS AND METHODS FOR TREATING GRAVES DISEASE” (The Regents of the University of Michigan, priority 2018, published 2021)

Legend:
3D G-OF organoids [1] = test: Immunofluorescent staining of ECM, LOX and HIF2A proteins in 3D G-OF organoids; format: cell-based, human; settings: for ECM deposition (collagen types, FN) in G-OF organoids: immunofluorescence, 10 μM GM6001, 30 nM T3, 5 mIU/ml TSH, 0.5 mM BAPN, day 1-6
Procedure: (§1) A hanging droplet spheroid culture system was used to generate 3D organoids. To facilitate stable morphology, methylcellulose (Mehocel A4M) was added to the growth medium (52). Prior to seeding the hanging drop culture plate (#HDP1385, Sigma-Aldrich), cells were cultured in 100 mm or 150 mm dishes until reaching approximately 90% confluence. After washing with Hank's Balanced Salt Solution (HBSS), cells were detached using 0.25% Trypsin/EDTA and resuspended in growth medium. After centrifugation for 5 minutes at 300 g, the cell pellet was re-suspended in growth medium containing 0.25% w/v Methocel A4M. Volume was adjusted such that 20,000 cells were contained in 25 μL solution, and 25 μL drops were placed into each well of the drop culture plate (defined as day 0). Organoid medium (growth medium with 0.25% w/v methocel A4M) was used throughout the duration of spheroid culture. Every day, 14 μL culture medium was removed and 14 μL fresh culture medium added to each well.
(§2) Adipogenic differentiation was induced with (growth or organoid) medium containing 250 nM dexamethasone, 10 nM T3, 10 μM troglitazone, and 1 μg/ml insulin on days 1-5, followed by medium with 10 μM troglitazone and 1 μg/ml insulin on days 6-11, then with medium alone on day 12. For the analysis of the lipid droplet formation, organoids were transferred to super-low attachment 6 well dishes and incubated in HBSS containing BODIPY (#D3922, Thermo Fisher Scientific) at 1:500 ratio by volume for 1 hour, then fixed in 4% paraformaldehyde (PFA) in PBS for 10 minutes at room temperature. Fluorescence intensity of BODIPY-stained lipid droplets were measured using Nikon A1 confocal microscope (Tokyo, Japan) and quantified using Image J software version 1.51n (NIH, Bethesda, Md.). Several compounds were added to droplets on day 1 and maintained at the same concentration until collection of organoids on day 6. For individual experiments, these included 10 μM GM6001, (global MMP inhibitor), 30 nM T3, 5 mIU/ml TSH, 30 nM T3+5 mIU/ml TSH, 0.5 mM BAPN (LOX inhibitor), and 1 μM, 5 μM or 10 μM HIF2A antagonist.
Organoids were fixed in 4% PFA/PBS overnight with or without permeabilization in 0.5% Triton X-100 in PBS for 1 hour. To stain extracellular collagen and fibronectin, no permeabilization was performed, and all the detergents were excluded from the subsequent procedures. After blocking in 3% BSA/0.1% PBST for 3 hours at room temperature, organoids were washed 3 times for 30 minutes with PBST. Samples were incubated with primary antibody overnight at 4° C. […]

mouse OF organoids = test: Tissue stiffness of 3D mouse OF organoids expressing mutant HIF2A (HIF2dPA); format: cell-based; settings: adeno-Cre-induced HIF2dPA
Procedure: ROSA26-STOP-HIF2dPA (flox/flox) mice were provided by Dr. Emestina Schipani (University of Michigan), and used for the isolation of orbital adipose tissue. Cells isolated from this depot were cultivated as previously reported (50) and cultured in a standard growth medium. A degradation-resistant HIF2A mutant was introduced by adenoviral Cre (Vector; Ad5 CMV-Cre)-recombinase by incubation for 16 hours with the virus. Adenoviral GFP (Vector; Ad5 CMV eGFP.dIE3) or Empty (Vector: Ad5 CMV pLpA.dIE3)-recombinase was used as controls.
(§3) A hanging droplet spheroid culture system was used to generate 3D organoids. To facilitate stable morphology, methylcellulose (Mehocel A4M) was added to the growth medium (52). Prior to seeding the hanging drop culture plate (#HDP1385, Sigma-Aldrich), cells were cultured in 100 mm or 150 mm dishes until reaching approximately 90% confluence. After washing with Hank's Balanced Salt Solution (HBSS), cells were detached using 0.25% Trypsin/EDTA and resuspended in growth medium. […]
The mechanical testing of the organoids was performed using the Microsquisher (CellScale, Waterloo, ON, Canada) as recently reported (53). […] The organoids were compressed to 50% deformation (as determined by microscopic camera) for 20 seconds. The force used to produce 50% stain of displacement was measured by the cantilever and data were reported as force/displacement (μN/μm). […]

3D G-OF organoids [2] = test: Tissue stiffness of 3D G-OF organoids (microindentation compression test); format: cell-based, human; settings: for tissue stiffness of 3D G-OF organoids: added day 1, kept to day 6, 10 μM GM6001, 30 nM T3, 5 mIU/ml TSH, 0.5 mM BAPN, 1, 5 or 10 μM HIF2A antagonist
Text: (§4) Orbital adipose tissues were obtained from surgical waste samples of de-identified euthyroid patients with GO undergoing orbital decompression and from non-GO subjects without inflammatory orbital disease, who underwent cosmetic eyelid surgery. OFs were isolated and grown as previously described (49). Briefly, tissues were minced into small pieces, placed on 150 mm culture dishes, and submerged in growth medium (DMEM supplemented with 10% v/v FBS, 1% v/v L-glutamine, 1% v/v antibiotic-antimycotic) at a sufficient depth to cover the tissue chunks. Explants were cultured in a humidified incubator • (at 37° C. with 5% CO2), with growth medium changes every 2-3 days. OFs from five GO patients five non-GO patients were isolated and expanded for subsequent experiments. All experiments were performed using OFs of 3-6 passages after the initial cell isolation.
as §1
as §2, with “Fluorescence intensity of BODIPY-stained lipid droplets were measured using Nikon A1 confocal microscope (Tokyo, Japan) and quantified using Image J software version 1.51n (NIH, Bethesda, Md.).” left out
The mechanical testing of the organoids was performed using the Microsquisher (CellScale, Waterloo, ON, Canada) as recently reported (53). The device consists of a microscale parallelplate compression system equipped with a 406-μm diameter cantilever. Organoids placed on a 3 mm-square plate for analysis. Immediately following collecting, organoids were placed in a 40 mL HBSS fluid bath at 37° C. and the cantilever was lowered until the upper compression plate was in contact with the top of the organoid. The organoids were compressed to 50% deformation (as determined by microscopic camera) for 20 seconds. The force used to produce 50% stain of displacement was measured by the cantilever and data were reported as force/displacement (μN/μm).

3D N-OF organoids [3] = test: Tissue stiffness of 3D N-OF organoids (microindentation compression test); format: cell-based, human; settings: added day 1, kept to day 6; 10 μM GM6001, 5 mIU/ml TSH
Text: as §4
A hanging droplet spheroid culture system was used to generate 3D organoids. […]
The mechanical testing of the organoids was performed using the Microsquisher (CellScale, Waterloo, ON, Canada) as recently reported (53). […] The organoids were compressed to 50% deformation (as determined by microscopic camera) for 20 seconds. The force used to produce 50% stain of displacement was measured by the cantilever and data were reported as force/displacement (μN/μm).

3D N-OF organoids [4] = test: Immunofluorescent staining of ECM and HIF2A proteins in 3D N-OF organoids; format: cell-based, human; settings: immunofluorescence; 10 μM GM6001
Procedure: as §1, with “Every day, 14 μL culture medium was removed and 14 μL fresh culture medium added to each well.” left out
(§5) Adipogenic differentiation was induced with (growth or organoid) medium containing 250 nM dexamethasone, 10 nM T3, 10 μM troglitazone, and 1 μg/ml insulin on days 1-5, followed by medium with 10 μM troglitazone and 1 μg/ml insulin on days 6-11, then with medium alone on day 12. […] Fluorescence intensity of BODIPY-stained lipid droplets were measured using Nikon A1 confocal microscope (Tokyo, Japan) and quantified using Image J software version 1.51n (NIH, Bethesda, Md.). […]

3D G-OF organoids [5] = test: Organoid size (cross-sectional area) of 3D G-OF organoids; format: cell-based, human; settings: T3 30 nM, TSH 5 mIU/ml, or combination; 6-day time course
Procedure: as §3, with “medium. After centrifugation for 5 minutes at 300 g, the cell pellet was re-suspended in growth medium containing 0.25% w/v Methocel A4M.” for “medium.”
as §5
Bright field images of each organoid were captured in 4× or 10× objective lenses using inverted microscope (Olympus IX70). The largest cross-sectional area (CSA) was calculated using Image J software version 1.51n. […] Intensity of immunofluorescent target proteins was quantified using NIH ImageJ software. […]

[6] = listed as allosteric HIF2A antagonist

N#CCCN.O=C(O)/C=C/C(=O)O [BAPN, 3-Aminopropionitrile fumarate salt]
ECM deposition (collagen types, FN) in G-OF organoids (3D G-OF organoids [1]): effectively suppressed the deposition of collagens type I and IV, FN, but not collagen type III and VI | tissue stiffness of mouse OF organoids with mutant HIF2A expression (mouse OF organoids): completely ameliorated the increased tissue stiffness | tissue stiffness of 3D G-OF organoids (3D G-OF organoids [2]): reduction of tissue stiffness

O=[N+]([O-])c1c(Nc2cc(F)cc(Cl)c2)ccc2nonc12 [C12H6ClFN4O3]
protein levels of LOX and FN in G-OF organoids (3D G-OF organoids [1]; HIF2A antagonist 1 μM, 5 μM or 10 μM): reducing protein levels of LOX and FN, in a dose-dependent manner | tissue stiffness of M22-stimulated G-OF organoids (3D G-OF organoids [2]; listed as C12H6ClFN4O03): reversed the tissue stiffness caused by TSHR activation | tissue stiffness of M22-stimulated G-OF organoids (3D G-OF organoids [2]; [6]): reverses | tissue stiffness of TSH-stimulated G-OF organoids (3D G-OF organoids [2]; listed as C12H6ClFN4O03): reversed the tissue stiffness caused by TSHR activation | tissue stiffness of TSH-stimulated G-OF organoids (3D G-OF organoids [2]; [6]): reverses | tissue stiffness of 3D G-OF organoids (3D G-OF organoids [2]): normalized the tissue stiffness

CNC(=O)[C@H](Cc1c[nH]c2ccccc12)NC(=O)[C@@H](CC(=O)NO)CC(C)C [GM6001]
ECM deposition (collagen types, FN) in G-OF organoids (3D G-OF organoids [1]): significant accumulation of type I, IV, and VI collagens | tissue stiffness of 3D N-OF organoids (3D N-OF organoids [3]): increased tissue stiffness | ECM deposition (collagen types) in N-OF spheroids (3D N-OF organoids [4]): significant accumulation of type I, IV, and VI collagens | tissue stiffness of 3D G-OF organoids (3D G-OF organoids [2]): increased tissue stiffness

N[C@@H](Cc1cc(I)c(Oc2ccc(O)c(I)c2)c(I)c1)C(=O)O [T3, 3,3′,5-Triiodo-L-thyronine]
organoid size (CSA) of G-OF organoids (3D G-OF organoids [5]): significant reduction in CSA | ECM deposition (collagen types, FN) in G-OF organoids (3D G-OF organoids [1]): no discemable impact
